What was measured:
Format in all cases: binding
[1] = target: T1, BphP1-FP (Rhodopseudomonas palustris, UniProt A0A161I5N6, C19S, form not given); assay: absorption and fluorescence spectroscopy of purified holoprotein; conditions: non-covalent (no reactive Cys); otherwise same
T1 construct: engineered near-infrared fluorescent protein from PAS-GAF (CBD) of RpBphP1, lacks PHY and effector domains; N-terminal polyhistidine tag (pBAD/His-B); E. coli LMG194 with heme oxygenase; monomer, about 35 kDa

[2] = target: T2, BphP1-FP (Rhodopseudomonas palustris, UniProt A0A161I5N6, C19S/I252C, form not given); assay: zinc-induced fluorescence on SDS-PAGE; absorption and fluorescence spectroscopy; conditions: covalent, to Cys256 (GAF) only; otherwise same
T2 construct: engineered near-infrared fluorescent protein from PAS-GAF (CBD) of RpBphP1, lacks PHY and effector domains; N-terminal polyhistidine tag (pBAD/His-B); E. coli LMG194 with heme oxygenase; monomer, about 35 kDa

[3] = target: T3, BphP1-FP (Rhodopseudomonas palustris, UniProt A0A161I5N6, I252C, form not given); assay: as above; conditions: covalent, to Cys256 (GAF) and partly also Cys15 (PAS); co-expressed heme oxygenase supplies BV; 20 mM Tris/HCl pH 8.0, 1 mM TCEP
T3 construct: engineered near-infrared fluorescent protein from PAS-GAF (CBD) of RpBphP1, lacks PHY and effector domains; N-terminal polyhistidine tag (pBAD/His-B); E. coli LMG194 with heme oxygenase; monomer, about 35 kDa
T3 sequence (A0A161I5N6 1-314 I252C limits assumed): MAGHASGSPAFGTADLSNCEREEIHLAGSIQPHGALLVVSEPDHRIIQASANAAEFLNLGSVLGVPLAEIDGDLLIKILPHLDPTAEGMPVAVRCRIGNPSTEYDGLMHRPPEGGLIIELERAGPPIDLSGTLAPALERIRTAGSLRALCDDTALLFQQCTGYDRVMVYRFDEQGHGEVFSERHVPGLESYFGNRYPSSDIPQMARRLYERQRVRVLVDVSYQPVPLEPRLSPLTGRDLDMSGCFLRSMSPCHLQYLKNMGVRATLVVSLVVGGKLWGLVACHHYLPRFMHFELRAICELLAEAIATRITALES

T2 sequence (A0A161I5N6 1-314 C19S/I252C limits assumed): as the sequence (A0A161I5N6 1-314 I252C limits assumed) above, with C19S counted along it
T1 sequence (A0A161I5N6 1-314 C19S limits assumed): as the sequence (A0A161I5N6 1-314 I252C limits assumed) above, with C19S, C252I counted along it

## C=CC1=C(C)C(=Cc2[nH]c(C=C3N=C(C=C4NC(=O)C(C)=C4C=C)C(C)=C3CCC(=O)O)c(CCC(=O)O)c2C)NC1=O [BV, biliverdin]
[1]
  absorption and fluorescence spectroscopy of purified holoprotein: Absorption and fluorescence spectra of BphP1-FP/C15S/C256I mutant without Cys15 and Cys256 residues
[2]
  zinc-induced fluorescence on SDS-PAGE; absorption and fluorescence spectroscopy: there was no non-covalently bound BV in BphP1-FP/C15S
[3]
  zinc-induced fluorescence on SDS-PAGE; absorption and fluorescence spectroscopy: The zinc-staining assay confirmed the covalent binding of the BV chromophore in BphP1-FP, BphP1-FP/C256I

— paper PMC5454922, “Interaction of Biliverdin Chromophore with Near-Infrared Fluorescent Protein BphP1-FP Engineered from Bacterial Phytochrome” (International Journal of Molecular Sciences, 2017)
